Laboratory results published in US10793563B2, “GCN2 inhibitors and uses thereof” (Merck Patent GmbH, priority 2018, dated 2020).

Target: GCN2 kinase (Homo sapiens (Human), UniProt Q9P2K8)
Assay: GCN2 Enzyme Inhibition Assay (Transcreener ADP2 fluorescence polarization)
Assay type: biochemical
Settings: 280 μM ATP, 200 μM (RS)7 peptide, 4 nM GCN2, 25° C.
Summary of the method: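 Transcreener ADP2 fluorescence polarization detection of ADP from 4 nM GCN2 with (RS)7 substrate in 25 mM Tris-HCl pH 7.5, 50 mM NaCl, 10 mM MgCl2, 1 mM DTT. Compound pre-incubated with enzyme 10 min at 25 °C; reaction started by ATP, run 1 h at 25 °C. IC50 and Ki(app) by tight-binding fit.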

GCN2 kinase, sequence (Q9P2K8 whole entry): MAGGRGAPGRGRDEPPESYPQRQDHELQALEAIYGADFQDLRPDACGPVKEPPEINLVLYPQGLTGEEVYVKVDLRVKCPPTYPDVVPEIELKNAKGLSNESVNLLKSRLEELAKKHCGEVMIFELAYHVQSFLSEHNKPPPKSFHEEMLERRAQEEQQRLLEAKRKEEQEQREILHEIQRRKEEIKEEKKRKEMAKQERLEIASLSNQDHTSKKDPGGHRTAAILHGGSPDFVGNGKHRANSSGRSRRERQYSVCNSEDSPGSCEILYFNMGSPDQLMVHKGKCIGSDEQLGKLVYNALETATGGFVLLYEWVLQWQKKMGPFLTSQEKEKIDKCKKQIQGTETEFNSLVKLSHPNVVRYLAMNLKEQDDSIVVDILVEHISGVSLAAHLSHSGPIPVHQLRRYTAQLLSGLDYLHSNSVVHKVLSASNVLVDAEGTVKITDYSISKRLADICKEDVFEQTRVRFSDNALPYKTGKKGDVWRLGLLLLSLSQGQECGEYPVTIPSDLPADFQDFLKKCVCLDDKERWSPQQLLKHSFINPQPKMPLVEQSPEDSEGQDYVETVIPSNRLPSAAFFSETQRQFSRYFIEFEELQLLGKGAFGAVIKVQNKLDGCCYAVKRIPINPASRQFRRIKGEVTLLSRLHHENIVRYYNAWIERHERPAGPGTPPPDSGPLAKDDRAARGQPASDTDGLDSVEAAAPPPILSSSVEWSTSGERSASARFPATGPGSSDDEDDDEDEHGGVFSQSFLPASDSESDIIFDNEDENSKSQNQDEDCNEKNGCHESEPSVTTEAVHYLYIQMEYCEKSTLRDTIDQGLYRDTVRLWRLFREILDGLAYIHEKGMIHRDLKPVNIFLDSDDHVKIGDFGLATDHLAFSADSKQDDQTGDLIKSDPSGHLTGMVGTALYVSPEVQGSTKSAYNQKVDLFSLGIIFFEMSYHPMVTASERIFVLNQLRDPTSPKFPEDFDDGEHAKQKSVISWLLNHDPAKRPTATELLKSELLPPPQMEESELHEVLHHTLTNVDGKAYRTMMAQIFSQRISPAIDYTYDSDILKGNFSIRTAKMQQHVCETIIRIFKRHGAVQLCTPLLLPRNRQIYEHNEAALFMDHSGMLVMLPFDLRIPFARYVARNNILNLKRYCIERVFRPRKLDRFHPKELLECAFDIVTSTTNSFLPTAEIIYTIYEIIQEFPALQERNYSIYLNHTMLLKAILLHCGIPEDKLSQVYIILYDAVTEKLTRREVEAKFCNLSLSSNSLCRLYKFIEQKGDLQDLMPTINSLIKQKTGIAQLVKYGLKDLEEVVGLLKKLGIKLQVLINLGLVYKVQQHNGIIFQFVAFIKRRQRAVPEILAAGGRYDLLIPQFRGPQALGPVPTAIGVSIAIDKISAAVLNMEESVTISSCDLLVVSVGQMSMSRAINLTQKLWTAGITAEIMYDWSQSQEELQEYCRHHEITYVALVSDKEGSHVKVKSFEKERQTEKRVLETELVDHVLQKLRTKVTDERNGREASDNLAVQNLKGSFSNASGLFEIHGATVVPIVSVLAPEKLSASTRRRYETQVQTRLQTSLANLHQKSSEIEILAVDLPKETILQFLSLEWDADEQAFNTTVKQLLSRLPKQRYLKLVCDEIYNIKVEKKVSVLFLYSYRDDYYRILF

SMILES	IC50
CC1(C)CN(c2ccnc(-c3cnc4ccc(C(F)(F)F)cn34)n2)CCN1CC(F)(F)F [I-333, 3-(4-(3,3-dimethyl-4-(2,2,2-trifluoroethyl)piperazin-1-yl)pyrimidin-2-yl)-6-(trifluoromethyl)imidazo[1,2-a]pyridine]	100 to 1000 nM
C[C@H]1CN(c2ccnc(-c3cnc4ccc(C(F)(F)F)cn34)n2)C[C@H](C(N)=O)O1 [I-129, (2R,6 S)-6-methyl-4-(2-(6-(trifluoromethyl)imidazo[1,2-a]pyridin-3-yl)pyrimidin-4-yl)morpholine-2-carboxamide]	10 to 100 nM
COc1cc(C(=O)N2CCN(c3ccnc(-c4cnc5ccc(C(F)(F)F)cn45)n3)CC2c2cn[nH]c2)ccn1 (stereo not drawn) [I-452, (2-(1H-pyrazol-4-yl)-4-(2-(6-(trifluoromethyl)imidazo[1,2-a]pyridin-3-yl)pyrimidin-4-yl)piperazin-1-yl)(2-methoxypyridin-4-yl)methanone]	100 to 1000 nM
CC1CN(c2ccnc(-c3cnc4ccc(C(F)(F)F)cn34)n2)CC(C)N1 (stereo not drawn) [I-231, 3-(4-(3,5-dimethylpiperazin-1-yl)pyrimidin-2-yl)-6-(trifluoromethyl)imidazo[1,2-a]pyridine]	100 to 1000 nM
N#CC1(C(=O)n2cc([C@@H]3CN(c4ccnc(-c5cnc6ccc(C(F)(F)F)cn56)n4)CCN3)cn2)CC1 [I-433, (R)-1-(4-(4-(2-(6-(trifluoromethyl)imidazo[1,2-a]pyridin-3-yl)pyrimidin-4-yl)piperazin-2-yl)-1H-pyrazole-1-carbonyl)cyclopropane-1-carbonitrile]	10 to 100 nM
Cc1nnc(C)n1[C@@H]1C[C@@H](C)CN(c2nccc(-c3cnc4ccc(C(F)(F)F)cn34)n2)C1 [I-467, 3-(2-((3R,5R)-3-(3,5-dimethyl-4H-1,2,4-triazol-4-yl)-5-methylpiperidin-1-yl)pyrimidin-4-yl)-6-(trifluoromethyl)imidazo[1,2-a]pyridine]	10 to 100 nM
Clc1ccc2ncc(-c3nccc(N4CCCC5(CNC5)C4)n3)n2c1 [I-299, 6-(2-(6-chloroimidazo[1,2-a]pyridin-3-yl)pyrimidin-4-yl)-2,6-diazaspiro[3.5]nonane]	100 to 1000 nM
C[C@@H]1CN(c2ccnc(-c3cnc4ccc(C(F)(F)F)cn34)n2)C[C@H](C)N1S(C)(=O)=O [I-439, 3-(4-(cis-3,5-dimethyl-4-(methylsulfonyl)piperazin-1-yl)pyrimidin-2-yl)-6-(trifluoromethyl)imidazo[1,2-a]pyridine]	100 to 1000 nM
Cc1[nH]ncc1[C@H]1CN(c2ccnc(-c3cnc4cc(F)c(Cl)cn34)n2)C[C@H](C)O1 [I-539, (2S,6S)-4-(2-(6-chloro-7-fluoroimidazo[1,2-a]pyridin-3-yl)pyrimidin-4-yl)-2-methyl-6-(5-methyl-1H-pyrazol-4-yl)morpholine]	10 to 100 nM
NC(=O)CC1CCCN(c2ccnc(-c3cnc4ccc(C(F)(F)F)cn34)n2)C1 (stereo not drawn) [I-166, 2-(1-(2-(6-(trifluoromethyl)imidazo[1,2-a]pyridin-3-yl)pyrimidin-4-yl)piperidin-3-yl)acetamide]	10 to 100 nM
NC(=O)[C@H]1CN(c2ccnc(-c3cnc4cc(F)c(Cl)cn34)n2)CCN1C1CC1 [I-425, (R)-4-(2-(6-chloro-7-fluoroimidazo[1,2-a]pyridin-3-yl)pyrimidin-4-yl)-1-cyclopropylpiperazine-2-carboxamide]	100 to 1000 nM
O=C([C@H]1C[C@H]1F)N1CCN(c2ccnc(-c3cnc4ccc(C(F)(F)F)cn34)n2)CC1c1cn[nH]c1 (stereo in doubt) [I-489, (2-(1H-pyrazol-4-yl)-4-(2-(6-(trifluoromethyl)imidazo[1,2-a]pyridin-3-yl)pyrimidin-4-yl)piperazin-1-yl)((1R,2R)-2-fluorocyclopropyl)methanone]	10 to 100 nM
COCCN1CCN(c2ccnc(-c3cnc4ccc(C(F)(F)F)cn34)n2)CC1C(N)=O (stereo not drawn) [I-258, 1-(2-methoxyethyl)-4-(2-(6-(trifluoromethyl)imidazo[1,2-a]pyridin-3-yl)pyrimidin-4-yl)piperazine-2-carboxamide]	10 to 100 nM
CC1C(C(N)=O)NCCN1c1ccnc(-c2cnc3cc(F)c(C4CC4)cn23)n1 (stereo not drawn) [I-455, 4-(2-(6-cyclopropyl-7-fluoroimidazo[1,2-a]pyridin-3-yl)pyrimidin-4-yl)-3-methylpiperazine-2-carboxamide]	10 to 100 nM
Cc1[nH]ncc1[C@H]1[C@H](C)N(c2ccnc(-c3cnc4ccc(C(F)(F)F)cn34)n2)CCN1C1COC1 [I-367]	100 to 1000 nM
NC(=O)C1CN(c2ccnc(-c3cnc4ccc(C(F)(F)F)cn34)n2)C1 [I-228, 1-(2-(6-(trifluoromethyl)imidazo[1,2-a]pyridin-3-yl)pyrimidin-4-yl)azetidine-3-carboxamide]	100 to 1000 nM

Further lines, results first:

IC50	SMILES
100 to 1000 nM	C[C@@H]1CN(c2ccnc(-c3cnc4ccc(C(F)(F)F)cn34)n2)C[C@H](C)N1CC(F)(F)F [I-410, 3-(4-(cis-3,5-dimethyl-4-(2,2,2-trifluoroethyl)piperazin-1-yl)pyrimidin-2-yl)-6-(trifluoromethyl)imidazo[1,2-a]pyridine]
100 to 1000 nM	N[C@H]1C[C@H](O)CN(c2ccnc(-c3cnc4ccc(C(F)(F)F)cn34)n2)C1 [I-239, (3 S,5S)-5-amino-1-(2-(6-(trifluoromethyl)imidazo[1,2-a]pyridin-3-yl)pyrimidin-4-yl)piperidin-3-ol]
100 to 1000 nM	C[C@@H]1[C@H](C(N)=O)NCCN1c1ccnc(-c2cnc3ccc(C(F)(F)F)cn23)n1 [I-434, (2R,3R)-3-methyl-4-(2-(6-(trifluoromethyl)imidazo[1,2-a]pyridin-3-yl)pyrimidin-4-yl)piperazine-2-carboxamide]
100 to 1000 nM	CC(C)(C(N)=O)C1CCCN(c2ccnc(-c3cnc4ccc(Cl)cn34)n2)C1 (stereo not drawn) [I-309, 2-(1-(2-(6-chloroimidazo[1,2-a]pyridin-3-yl)pyrimidin-4-yl)piperidin-3-yl)-2-methylpropanamide]
< 10 nM	Fc1ccccc1CN1CCN(c2ccnc(-c3cnc4ccc(C(F)(F)F)cn34)n2)CC1c1cn[nH]c1 (stereo not drawn) [I-459, 3-(4-(4-(2-fluorobenzyl)-3-(1H-pyrazol-4-yl)piperazin-1-yl)pyrimidin-2-yl)-6-(trifluoromethyl)imidazo[1,2-a]pyridine]
10 to 100 nM	NC(=O)CC1CN(c2ccnc(-c3cnc4ccc(C(F)(F)F)cn34)n2)C1 [I-230, 2-(1-(2-(6-(trifluoromethyl)imidazo[1,2-a]pyridin-3-yl)pyrimidin-4-yl)azetidin-3-yl)acetamide]
10 to 100 nM	Fc1ccc(CN2CCN(c3ccnc(-c4cnc5ccc(C(F)(F)F)cn45)n3)CC2c2cn[nH]c2)cc1 (stereo not drawn) [I-457, 3-(4-(4-(4-fluorobenzyl)-3-(1H-pyrazol-4-yl)piperazin-1-yl)pyrimidin-2-yl)-6-(trifluoromethyl)imidazo[1,2-a]pyridine]
100 to 1000 nM	C[C@@H]1CN(c2ccnc(-c3cnc4ccc(C(F)(F)F)cn34)n2)C[C@H](C)N1C(=O)c1cc2n(n1)CCOC2 [I-513, (6,7-dihydro-4H-pyrazolo[5,1-c][1,4]oxazin-2-yl)(cis-2,6-dimethyl-4-(2-(6-(trifluoromethyl)imidazo[1,2-a]pyridin-3-yl)pyrimidin-4-yl)piperazin-1-yl)methanone]
10 to 100 nM	NC(=O)CC1CCCN(c2ccnc(-c3cnc4ccc(Cl)cn34)n2)C1 (stereo not drawn) [I-162, 2-(1-(2-(6-chloroimidazo[1,2-a]pyridin-3-yl)pyrimidin-4-yl)piperidin-3-yl)acetamide]
100 to 1000 nM	Cc1nn(C)cc1[C@@H]1C[C@@H](C)CN(c2nccc(-c3cnc4ccc(C(F)(F)F)cn34)n2)C1 [I-140, 3-(2-((3S,5R)-3-(1,3-dimethyl-1H-pyrazol-4-yl)-5-methylpiperidin-1-yl)pyrimidin-4-yl)-6-(trifluoromethyl)imidazo[1,2-a]pyridine]
100 to 1000 nM	C[C@@H]1CN(c2ccnc(-c3cnc4ccc(C(F)(F)F)cn34)n2)C[C@H](C)N1C(=O)C1CC(F)(F)C1 [I-437, (3,3-difluorocyclobutyl)(cis-2,6-dimethyl-4-(2-(6-(trifluoromethyl)imidazo[1,2-a]pyridin-3-yl)pyrimidin-4-yl)piperazin-1-yl)methanone]
100 to 1000 nM	Cc1noc(C2CN(c3ccnc(-c4cnc5ccc(C(F)(F)F)cn45)n3)CCN2C)n1 (stereo not drawn) [I-332, 3-methyl-5-(1-methyl-4-(2-(6-(trifluoromethyl)imidazo[1,2-a]pyridin-3-yl)pyrimidin-4-yl)piperazin-2-yl)-1,2,4-oxadiazole]
100 to 1000 nM	NC(=O)C1CCCN(c2nc(-c3cnc4ccc(C(F)(F)F)cn34)ncc2F)C1 (stereo in doubt) [I-282, (S)-1-(5-fluoro-2-(6-(trifluoromethyl)imidazo[1,2-a]pyridin-3-yl)pyrimidin-4-yl)piperidine-3-carboxamide]

Same assay, conditions: Ki(app); 280 μM ATP, 200 μM (RS)7 peptide, 4 nM GCN2, 25° C.

SMILES	Ki
Cc1noc([C@@H]2CN(c3ccnc(-c4cnc5ccc(C#N)cn45)n3)C[C@H](C)O2)n1 [I-91, 3-{4-[(2S,6S)-2-methyl-6-(3-methyl-1,2,4-oxadiazol-5-yl)morpholin-4-yl]pyrimidin-2-yl}imidazo[1,2-a]pyridine-6-carbonitrile]	10 to 100 nM
Clc1ccc2ncc(-c3nccc(N4CCCC(c5cn[nH]c5)C4)n3)n2c1 (stereo not drawn) [I-100, 2-{6-chloroimidazo[1,2-a]pyridin-3-yl}-4-[3-(1H-pyrazol-4-yl)piperidin-1-yl]pyrimidine]	< 10 nM
CS(C)(=O)=NC1CCCN(c2ccnc(-c3cnc4ccc(Cl)cn34)n2)C1 (stereo not drawn) [I-30, ((1-(2-(6-Chloroimidazo[1,2-a]pyridin-3-yl)pyrimidin-4-yl)piperidin-3-yl)imino)dimethyl-λ^6-sulfanone]	100 to 1000 nM
Cc1nnc([C@@H]2CN(c3ccnc(-c4cnc5ccc(C#N)cn45)n3)C[C@H](C)O2)o1 (relative stereo) [I-94, 3-{4-[cis-2-methyl-6-(5-methyl-1,3,4-oxadiazol-2-yl)morpholin-4-yl]pyrimidin-2-yl}imidazo[1,2-a]pyridine-6-carbonitrile]	100 to 1000 nM
